US20240083857A1, “2-Methyl-Quinazolines” (Bayer Pharma Aktiengesellschaft, priority 2017, published 2024)
Where two headings read alike, the source gives them in different places.

Legend:
[1] = target: human SOS1 (loading of human K-Ras^G12C-GDP with fluorescent GTP-analog) (Homo sapiens, UniProt Q07889); assay: Biochemical assay 3: K-Ras^G12C activation assay by hSOS1 (HTRF); settings: no GTP; for IC50: read-out: Assay 3 (KRAS-Activation by SOS no GTP) activity expressed as IC50; for inhibition at 20 µM: read-out: Assay 3 (KRAS-Activation by SOS no GTP) activity expressed as % inhibition at 20 μM
[2] = target: Epidermal Growth Factor Receptor (EGFR) (Homo sapiens (Human), UniProt P00533); assay: EGFR kinase assay (TR-FRET); type: biochemical; settings: read-out: EGFR kinase inhibition IC50
Outline: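 Read-out is the 665/620 nm HTRF ratio, from a Tb-cryptate anti-phosphotyrosine antibody and streptavidin-XL665 bound to phosphorylated biotin-peptide substrate. The enzyme, A431-derived EGFR (~3 U/ml), was given 15 min compound pre-binding at 22° C in Hepes pH 7.0 with Mg2+/Mn2+ before reaction.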

Epidermal Growth Factor Receptor (EGFR), sequence (P00533 25-1210): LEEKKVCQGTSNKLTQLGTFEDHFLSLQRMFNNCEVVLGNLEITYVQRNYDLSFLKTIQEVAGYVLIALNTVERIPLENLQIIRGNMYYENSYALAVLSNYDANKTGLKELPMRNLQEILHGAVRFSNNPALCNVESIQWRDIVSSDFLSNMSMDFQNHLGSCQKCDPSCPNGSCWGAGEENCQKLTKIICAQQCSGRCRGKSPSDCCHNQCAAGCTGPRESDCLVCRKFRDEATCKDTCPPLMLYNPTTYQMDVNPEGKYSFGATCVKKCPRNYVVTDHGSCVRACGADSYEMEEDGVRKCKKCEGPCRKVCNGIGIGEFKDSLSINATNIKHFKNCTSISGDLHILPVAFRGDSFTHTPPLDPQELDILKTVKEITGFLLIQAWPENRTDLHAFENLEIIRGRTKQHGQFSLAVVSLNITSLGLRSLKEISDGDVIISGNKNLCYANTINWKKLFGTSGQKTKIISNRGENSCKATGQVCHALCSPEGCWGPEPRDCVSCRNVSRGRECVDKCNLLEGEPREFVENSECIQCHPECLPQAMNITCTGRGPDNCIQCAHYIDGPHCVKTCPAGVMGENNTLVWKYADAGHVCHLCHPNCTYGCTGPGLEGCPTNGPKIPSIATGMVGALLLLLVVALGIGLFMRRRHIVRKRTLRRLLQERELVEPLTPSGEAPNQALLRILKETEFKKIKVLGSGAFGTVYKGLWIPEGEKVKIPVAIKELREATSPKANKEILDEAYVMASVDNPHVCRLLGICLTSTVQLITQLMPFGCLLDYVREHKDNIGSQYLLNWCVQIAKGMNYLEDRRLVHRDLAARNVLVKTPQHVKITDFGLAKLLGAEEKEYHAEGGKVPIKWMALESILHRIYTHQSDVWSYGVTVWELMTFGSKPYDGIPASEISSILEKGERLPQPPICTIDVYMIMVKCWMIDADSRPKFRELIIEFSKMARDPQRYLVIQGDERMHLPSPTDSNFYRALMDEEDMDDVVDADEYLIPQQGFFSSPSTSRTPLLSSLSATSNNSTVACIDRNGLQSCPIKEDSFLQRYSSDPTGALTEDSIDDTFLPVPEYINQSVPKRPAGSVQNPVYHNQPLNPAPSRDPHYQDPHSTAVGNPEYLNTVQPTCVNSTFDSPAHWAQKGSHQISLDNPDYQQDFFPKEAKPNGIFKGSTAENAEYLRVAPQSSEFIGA

Compound	IC50 [1]	IC50 ([2]; values given in μM)	inhibition at 20 µM [1]	IC50 ([2]; unit inferred)
COc1cc2nc(C)nc(N[C@H](C)c3cccc(Br)c3)c2cc1OC [Example 191, N-[(1R)-1-(3-bromophenyl)ethyl]-6,7-dimethoxy-2-methylquinazolin-4-amine]	0.382 µM	> 20 µM		
COc1cc2nc(C)nc(N[C@H](C)c3ccc(C(N)=O)cc3)c2cc1OC [Example 192, 4-{(1R)-1-[(6,7-dimethoxy-2-methylquinazolin-4-yl)amino]ethyl}benzamide]	14.2 µM	> 20 µM		
COc1cc2nc(C)nc(N[C@H](C)c3cccc(-c4ccccc4)c3)c2cc1OC [Example 193, N-[(1R)-1-(biphenyl-3-yl)ethyl]-6,7-dimethoxy-2-methylquinazolin-4-amine]	0.82 µM	> 20 µM		
COc1cc2nc(C)nc(N[C@H](C)c3cccc(C#N)c3)c2cc1OC [Example 194, 3-{(1R)-1-[(6,7-dimethoxy-2-methylquinazolin-4-yl)amino]ethyl}benzonitrile]	2.43 µM	> 20 µM		
COc1cc2nc(C)nc(N[C@H](C)c3ccc(C)cc3)c2cc1OC [Example 195, 6,7-dimethoxy-2-methyl-N-[(1R)-1-(4-methylphenyl)ethyl]quinazolin-4-amine]	0.749 µM	> 20 µM		
COc1cc2nc(C)nc(N[C@H](C)c3ccc(-c4ccccc4)cc3)c2cc1OC [Example 196, N-[(1R)-1-(biphenyl-4-yl)ethyl]-6,7-dimethoxy-2-methylquinazolin-4-amine]	6.1 µM	> 20 µM		
COc1cc2nc(C)nc(N[C@H](C)c3ccc(C4CC4)cc3)c2cc1OC [Example 197, N-[(1R)-1-(4-cyclopropylphenyl)ethyl]-6,7-dimethoxy-2-methylquinazolin-4-amine]	0.638 µM	> 20 µM		
COc1cc2nc(C)nc(N[C@H](C)c3cccc(S(C)(=O)=O)c3)c2cc1OC [Example 198, 6,7-dimethoxy-2-methyl-N-{(1R)-1-[3-(methylsulfonyl)phenyl]ethyl}quinazolin-4-amine]	1.09 µM	> 20 µM		
COc1cc2nc(C)nc(N[C@H](C)c3cccc(C(N)=O)c3)c2cc1OC [Example 199, 3-{(1R)-1-[(6,7-dimethoxy-2-methylquinazolin-4-yl)amino]ethyl}benzamide]	6.7 µM	> 20 µM		
COc1cc2nc(C)nc(N[C@H](C)c3ccc(C4=CCN(C)CC4)cc3)c2cc1OC [Example 201, 6,7-dimethoxy-2-methyl-N-{(1R)-1-[4-(1-methyl-1,2,3,6-tetrahydropyridin-4-yl)phenyl]ethyl}quinazolin-4-amine]		> 20 µM	50%	
COc1cc2nc(C)nc(N[C@H](C)c3cccc(C4=CCN(C)CC4)c3)c2cc1OC [Example 202, 6,7-dimethoxy-2-methyl-N-{(1R)-1-[3-(1-methyl-1,2,3,6-tetrahydropyridin-4-yl)phenyl]ethyl}quinazolin-4-amine]	5.32 µM	> 20 µM		
C=C(C)c1ccc([C@@H](C)Nc2nc(C)nc3cc(OC)c(OC)cc23)cc1 [Example 203, 6,7-dimethoxy-2-methyl-N-{(1R)-1-[4-(prop-1-en-2-yl)phenyl]ethyl}quinazolin-4-amine]	3.36 µM	> 20 µM		
COc1cc2nc(C)nc(N[C@H](C)c3cccc(C4CC4)c3)c2cc1OC [Example 204, N-[(1R)-1-(3-cyclopropylphenyl)ethyl]-6,7-dimethoxy-2-methylquinazolin-4-amine]	0.64 µM	> 20 µM		
COc1cc2nc(C)nc(NC(C)c3cccc4sccc34)c2cc1OC (centres unmarked) [Example 205, N-[1-(1-benzothiophen-4-yl)ethyl]-6,7-dimethoxy-2-methylquinazolin-4-amine]	0.126 µM	> 20 µM		
COc1cc2nc(C)nc(N[C@H](C)c3ccccc3)c2cc1OC [Example 206, 6,7-dimethoxy-2-methyl-N-[(1R)-1-phenylethyl]quinazolin-4-amine]	1.75 µM	> 20 µM		
COc1cc2nc(C)nc(NC(C)c3cccs3)c2cc1OC (centres unmarked) [Example 207, 6,7-dimethoxy-2-methyl-N-[1-(thiophen-2-yl)ethyl]quinazolin-4-amine]	12.3 µM	> 20 µM		
COc1cc2nc(C)nc(NC(C)c3ccc(-c4ccccc4CN4CCC(O)C4)s3)c2cc1OC (centres unmarked) [Example 210, 1-[2-(5-{1-[(6,7-dimethoxy-2-methylquinazolin-4-yl)amino]ethyl}thiophen-2-yl)benzyl]pyrrolidin-3-ol]	0.1 µM	> 20 µM		

Compound	IC50 [1]	IC50 ([2]; values given in μM)	inhibition at 20 µM [1]	IC50 ([2]; unit inferred)
COc1cc2nc(C)nc(NC(C)c3ccc(-c4ccccc4CN4CC[C@H](F)C4)s3)c2cc1OC (stereo partly drawn) [Example 211, N-{1-[5-(2-{[(3S)-3-fluoropyrrolidin-1-yl]methyl}phenyl)thiophen-2-yl]ethyl}-6,7-dimethoxy-2-methylquinazolin-4-amine]	0.233 µM	> 20 µM		
COc1cc2nc(C)nc(NC(C)c3ccc(-c4ccccc4)o3)c2cc1OC (centres unmarked) [Example 213, 6,7-dimethoxy-2-methyl-N-[1-(5-phenylfuran-2-yl)ethyl]quinazolin-4-amine]		> 20 µM	42%	
COc1cc2nc(C)nc(NC(C)c3cc(Br)cc4c3OCC4)c2cc1OC (centres unmarked) [Example 214, N-[1-(5-bromo-2,3-dihydro-1-benzofuran-7-yl)ethyl]-6,7-dimethoxy-2-methylquinazolin-4-amine]	13.6 µM	> 20 µM		
COc1cc2nc(C)nc(NC(C)c3cccc(Oc4ccccc4)c3)c2cc1OC (centres unmarked) [Example 215, 6,7-dimethoxy-2-methyl-N-[1-(3-phenoxyphenyl)ethyl]quinazolin-4-amine]	2.95 µM			2.57 µM
COc1cc2nc(C)nc(NC(C)c3cccc(-c4nn[nH]n4)c3)c2cc1OC (centres unmarked) [Example 216, 6,7-dimethoxy-2-methyl-N-{1-[3-(2H-tetrazol-5-yl)phenyl]ethyl}quinazolin-4-amine]	16.1 µM	> 20 µM		
COc1cc2nc(C)nc(NC(C)c3cccc4cccnc34)c2cc1OC (centres unmarked) [Example 217, 6,7-dimethoxy-2-methyl-N-[1-(quinolin-8-yl)ethyl]quinazolin-4-amine]		> 20 µM	45%	
COc1cc2nc(C)nc(NC(C)c3ccc(-c4cnn(CCO)c4)s3)c2cc1OC (centres unmarked) [Example 218, 2-[4-(5-{1-[(6,7-dimethoxy-2-methylquinazolin-4-yl)amino]ethyl}thiophen-2-yl)-1H-pyrazol-1-yl]ethanol]	3.78 µM	> 20 µM		
COc1cc2nc(C)nc(NC(C)c3ccc(-c4cnc5n4CCC5)s3)c2cc1OC (centres unmarked) [Example 219, N-{1-[5-(6,7-dihydro-5H-pyrrolo[1,2-a]imidazol-3-yl)thiophen-2-yl]ethyl}-6,7-dimethoxy-2-methylquinazolin-4-amine]	0.908 µM	> 20 µM		
COc1cc2nc(C)nc(NC(C)c3ccc(-c4cnn(CCN5CCCC5)c4)s3)c2cc1OC (centres unmarked) [Example 220, 6,7-dimethoxy-2-methyl-N-[1-(5-{1-[2-(pyrrolidin-1-yl)ethyl]-1H-pyrazol-4-yl}thiophen-2-yl)ethyl]quinazolin-4-amine]	1.01 µM	> 20 µM		
COc1cc2nc(C)nc(NC(C)c3ccc(-c4cnn(C5CCCC5)c4)s3)c2cc1OC (centres unmarked) [Example 221, N-{1-[5-(1-cyclopentyl-1H-pyrazol-4-yl)thiophen-2-yl]ethyl}-6,7-dimethoxy-2-methylquinazolin-4-amine]	4.81 µM	> 20 µM		
COc1cc2nc(C)nc(NC(C)c3ccc(-c4cc[nH]n4)s3)c2cc1OC (centres unmarked) [Example 222, 6,7-dimethoxy-2-methyl-N-{1-[5-(1H-pyrazol-3-yl)thiophen-2-yl]ethyl}quinazolin-4-amine]	13.5 µM	> 20 µM		
COc1cc2nc(C)nc(NC(C)c3ccc(-c4ccccc4CN4CCC(F)(F)C4)s3)c2cc1OC (centres unmarked) [Example 223, N-[1-(5-{2-[(3,3-difluoropyrrolidin-1-yl)methyl]phenyl}thiophen-2-yl)ethyl]-6,7-dimethoxy-2-methylquinazolin-4-amine]	7.18 µM	> 20 µM		
COc1cc2nc(C)nc(NC(C)c3ccc4nsnc4c3)c2cc1OC (centres unmarked) [Example 229, N-[1-(2,1,3-benzothiadiazol-5-yl)ethyl]-6,7-dimethoxy-2-methylquinazolin-4-amine]		> 20 µM	29%	
CCOc1ccccc1-c1ccc(C(C)Nc2nc(C)nc3cc(OC)c(OC)cc23)s1 (centres unmarked) [Example 232, N-{1-[5-(2-ethoxyphenyl)thiophen-2-yl]ethyl}-6,7-dimethoxy-2-methylquinazolin-4-amine]	4.04 µM	> 20 µM		
COc1cc2nc(C)nc(NC(C)c3ccc(-c4ccc(F)c5ccccc45)s3)c2cc1OC (centres unmarked) [Example 233, N-{1-[5-(4-fluoronaphthalen-1-yl)thiophen-2-yl]ethyl}-6,7-dimethoxy-2-methylquinazolin-4-amine]	16.1 µM	> 20 µM		
COc1cc2nc(C)nc(NC(C)c3ccc(-c4ccc(F)cc4CN)s3)c2cc1OC (centres unmarked) [Example 234, N-[1-{5-[2-(aminomethyl)-4-fluorophenyl]thiophen-2-yl}ethyl]-6,7-dimethoxy-2-methylquinazolin-4-amine]	0.0921 µM	> 20 µM		
COc1cc2nc(C)nc(NC(C)c3ccc(C4=CCOCC4)s3)c2cc1OC (centres unmarked) [Example 235, N-{1-[5-(3,6-dihydro-2H-pyran-4-yl)thiophen-2-yl]ethyl}-6,7-dimethoxy-2-methylquinazolin-4-amine]	5.27 µM	> 20 µM		
